Assay results published in US8486958B2, “Crystalline forms of a 3-carboxypropyl-aminotetralin compound” (priority 2008, dated 2013).

How the values were obtained:
[1] = Dynamic moisture sorption assessment; type: physicochemical; details: for deliquescence: up to about 90% relative humidity at room temperature
Procedure: Dynamic moisture sorption (DMS) assessment was performed at 25° C. using a VTI atmospheric microbalance, SGA-100 system (VTI Corp., Hialeah, Fla. 33016). […] A typical DMS analysis consisted of three or four scans: ambient to 2% relative humidity (RH), 2% RH to 90% RH, 90% RH to 5% RH at a scan rate of 5% RH/step, and, in some case a second adsorption 2% RH to 90% RH. The mass was measured every two minutes and the RH was changed to the next value (±5% RH) when the mass of the sample was stable to within 0.02% for 5 consecutive points.

human mu opioid receptor [2] = biological target: T1, human mu opioid receptor (Homo sapiens, UniProt P35372); assay: Human mu GTP-Eu nucleotide exchange assay (agonist mediated activation); type: biochemical; details: relative to DAMGO as full agonist; read-out: intrinsic activity (IA), bound GTP-Eu relative to DAMGO (IA=100)
T1 construct: expressed in transfected cells; host or cells: CHO-K1

human mu opioid receptor [3] = biological target: T1, human mu opioid receptor; assay: Radioligand binding assay, [3H]-Diprenorphine displacement, CHO-K1 membranes
[4] = test system: motility of the gastrointestinal (GI) tract; assay: Gastrointestinal motility in animal models; type: in vivo
[5] = test system: loperamide-induced delayed gastric emptying; assay: Rat gastric emptying assay (reversal of loperamide-induced delay); type: in vivo; details: administered orally, loperamide 1 mg/kg s.c.
Procedure: Assay 3: Rat Model of In Vivo Efficacy In this assay the efficacy of test compounds was evaluated in a model of gastrointestinal transit, which evaluates peripheral activity. This study was approved by the Institutional Animal Care and Use Committee at […]. and conformed to the Guide for the Care and Use of Laboratory Animals published by the National Academy of Sciences (©1996). Test compounds were evaluated in the rat gastric emptying assay to determine their ability to reverse loperamide-induced delayed gastric emptying. Rats were fasted up overnight prior to administration of test compounds or vehicle by intravenous, subcutaneous, intramuscular or oral routes of administration at doses ranging from 0.001 to about 30 milligrams/kilogram (mg/kg). The administration of test compound was followed by subcutaneous administration of loperamide at a dose of 1 mg/kg or vehicle. […] Gastric weight was then determined after removal of the ligatures. Data was analyzed using the GraphPad Prism Software package (GraphPad Software, Inc., San Diego, Calif.). Percent reversal curves were constructed by non-linear regression analysis using the sigmoidal dose response (variable slope) model and best-fit ID50 values were calculated. […]

[6] = Thermogravimetric analysis (TGA); type: physicochemical; details: temperatures below the melting point
Procedure: Thermogravimetric analysis (TGA) was performed using a TA Instruments Model Q-500 module. Data were collected and analyzed using TA Instruments Thermal Advantage for Q Series™ software. A sample weighing about 1-5 mg was placed in an aluminum pan on a platinum cradle and scanned from ambient temperature to 300° C. with a linear heating rate of 10° C./min. The balance and furnace chambers were purged with nitrogen during use. Representative TGA traces for samples of crystalline Form I and of a crystalline hydrochloride salt of compound 1 are also shown in FIGS. 2 and 7, respectively.

T1 sequence (P35372 whole entry): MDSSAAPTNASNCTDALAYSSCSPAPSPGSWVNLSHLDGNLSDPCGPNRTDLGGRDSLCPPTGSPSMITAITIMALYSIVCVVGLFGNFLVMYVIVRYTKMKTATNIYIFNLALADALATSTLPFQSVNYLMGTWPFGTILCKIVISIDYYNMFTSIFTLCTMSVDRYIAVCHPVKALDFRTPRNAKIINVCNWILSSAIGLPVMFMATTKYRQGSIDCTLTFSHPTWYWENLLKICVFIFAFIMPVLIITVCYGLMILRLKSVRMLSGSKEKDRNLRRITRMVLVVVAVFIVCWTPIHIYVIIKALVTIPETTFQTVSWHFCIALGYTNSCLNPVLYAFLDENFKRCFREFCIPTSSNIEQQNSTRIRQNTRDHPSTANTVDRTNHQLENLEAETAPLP

Structure (SMILES): CCC1(CC)c2cc(C(N)=O)ccc2C[C@H](OC)[C@H]1NCC[C@H](CC1CCCCC1)C(=O)O.Cl [(S)-4-((2S,3S)-7-Carbamoyl-1,1-diethyl-3-methoxy-1,2,3,4-tetrahydronaphthalen-2-ylamino)-2-cyclohexylmethyl-butyric acid hydrochloride]
- appearance and flowability on exposure to humidity ([1]; about 2% to about 90% relative humidity at room temperature): retained their appearance and flowability
- deliquescence [1]: neither crystalline compound 1 nor the crystalline hydrochloride salt of compound 1 is deliquescent

Structure (SMILES): CCC1(CC)c2cc(C(N)=O)ccc2C[C@H](OC)[C@H]1NCC[C@H](CC1CCCCC1)C(=O)O [Compound 1, (S)-4-((2S,3S)-7-carbamoyl-1,1-diethyl-3-methoxy-1,2,3,4-tetrahydronaphthalen-2-ylamino)-2-cyclohexylmethyl-butyric acid]
- Emax (human mu opioid receptor [2]): -8%
- Ki (human mu opioid receptor [3]): 0.398 nM
- effect on motility of the gastrointestinal tract [4]: increase motility of the gastrointestinal (GI) tract
- ID50, dose required for 50% reversal of the effects of loperamide [5]: 0.09 mg/kg

Structure (SMILES): CCC1(CC)c2cc(C(N)=O)ccc2C[C@H](OC)[C@H]1NCC[C@H](CC1CCCCC1)C(=O)O [Form I, (S)-4-((2S,3S)-7-carbamoyl-1,1-diethyl-3-methoxy-1,2,3,4-tetrahydronaphthalen-2-ylamino)-2-cyclohexylmethyl-butyric acid]
- TGA weight loss [6]: no significant weight loss
- weight gain (moisture sorption) ([1]; 40% to 75% relative humidity): less than 1%

Structure (SMILES): CCC1(CC)c2cc(C(N)=O)ccc2C[C@H](OC)[C@H]1NCC[C@H](CC1CCCCC1)C(=O)O [crystalline compound 1, (S)-4-((2S,3S)-7-carbamoyl-1,1-diethyl-3-methoxy-1,2,3,4-tetrahydronaphthalen-2-ylamino)-2-cyclohexylmethyl-butyric acid]
- weight gain (moisture sorption) ([1]; 2% to 90% relative humidity, room temperature): less than 2.5%
- deliquescence [1]: neither crystalline compound 1 nor the crystalline hydrochloride salt of compound 1 is deliquescent
